The record followed here is patent publication US6413911B1, “Herbicidal sulfonylureas, their preparation and use” (BASF Aktiengesellschaft, priority 1992, dated 2002).

One data set deals with Veronica spp. Briefly: greenhouse test, post-emergence herbicidal activity. The following applies: scale 0-100, Table I. The data set is classed as in vivo. An excerpt:
(§1) The cultivation containers used were plastic flowerpots containing loamy sand with about 3.0% humus as a substrate. The seeds of the test plants were sown separately according to species. For the purpose of post-emergence treatment, the test plants were first raised, depending on growth form, to a growth height of from 4 to 15 cm and only then treated with the active compounds suspended or emulsified in water. To do this, the test plants were either directly sown and raised in the same containers or they were first raised separately as seed plants and transplanted into the test containers a few days before the treatment. The application rate for post-emergence treatment was 0.06 kg/ha of a.s. (active substance). The plants were kept in a species-specific manner at 10-25° C. or 20-35° C. The test period extended over 2 to 4 weeks. During this time the plants were tended and their reaction to the individual treatments was assessed. Assessment was carried out on a scale of from 0 to 100. 100 here means no germination of the plants or complete destruction of at least the above-ground parts and 0 means no damage or normal course of growth. Comparison of the herbicidal activity of the exemplary compound No. 1.03 with the known comparison compound B on post-emergence application of 0.0313 or 0.0156 kg/ha of a.s. respectively in the greenhouse.

Another data set deals with Solanum nigrum. The data set is described as above. The data set is classed as in vivo. The following applies: scale 0-100, Table I.
From the text: as §1

Another data set has as its system Polygonum persicaria. The description is as above. In kind it is in vivo. The settings on record: scale 0-100, Table I.
From the text: as §1

The test system of a further data set is Amaranthus retroflexus. The data set is described as above. In kind it is in vivo. The following applies: scale 0-100, Table I.
From the text: as §1

The next data set concerns maize. Briefly: greenhouse test, post-emergence selectivity in crop plant maize. In kind it is in vivo, Zea mays. The settings on record: 0.06 kg/ha of a.s. post-emergence.
From the text: as §1, with “The plants used in the greenhouse tests were composed” for “Comparison”, “following species: [table]” for “herbicidal activity of the exemplary compound No. 1.03 with the known comparison compound B on post-emergence application of 0.0313 or 0.0156 kg/ha of a.s. respectively in the greenhouse.”

A further data set deals with Sinapis alba. The data set can be described thus: greenhouse test, post-emergence herbicidal activity. The data set is classed as in vivo.
From the text: as §1, with “greenhouse. Comparison of the herbicidal activity of the exemplary compound No. 3.01 with the known comparison compound H on post-emergence application of 0.063 or 0.0313 kg/ha of a.s. respectively in the greenhouse.” for “greenhouse.”

The subject of a further data set is Galium aparine. Described as above. The data set is classed as in vivo.
From the text: as §1, with “greenhouse. Comparison of the herbicidal activity of the exemplary compound No. 3.01 with the known comparison compound H on post-emergence application of 0.063 or 0.0313 kg/ha of a.s. respectively in the greenhouse.” for “greenhouse.”

Data set [1] concerns broad-leaved undesired plants. The data set can be described thus: greenhouse test, post-emergence control of broad-leaved undesired plants. In kind it is in vivo, Abutilon theophrasti; Sinapis alba. The settings on record: 0.06 kg/ha of a.s. post-emergence.
From the text: as §1, with “The plants used in the greenhouse tests were composed” for “Comparison”, “following species: [table]” for “herbicidal activity of the exemplary compound No. 1.03 with the known comparison compound B on post-emergence application of 0.0313 or 0.0156 kg/ha of a.s. respectively in the greenhouse.”

Another data set has as its system Triticum aestivum. The data set can be described thus: greenhouse test, post-emergence damage to crop plant. In kind it is in vivo. The settings on record: scale 0-100, Table II. From the text:
(§2) The cultivation containers used were plastic flowerpots containing loamy sand with about 3.0% humus as a substrate. The seeds of the test plants were sown separately according to species. For the purpose of post-emergence treatment, the test plants were first raised, depending on growth form, to a growth height of from 4 to 15 cm and only then treated with the active compounds suspended or emulsified in water. To do this, the test plants were either directly sown and raised in the same containers or they were first raised separately as seed plants and transplanted into the test containers a few days before the treatment. The application rate for post-emergence treatment was 0.06 kg/ha of a.s. (active substance). The plants were kept in a species-specific manner at 10-25° C. or 20-35° C. The test period extended over 2 to 4 weeks. During this time the plants were tended and their reaction to the individual treatments was assessed. Assessment was carried out on a scale of from 0 to 100. 100 here means no germination of the plants or complete destruction of at least the above-ground parts and 0 means no damage or normal course of growth. Comparison of the herbicidal activity of the exemplary compound No. 3.01 with the known comparison compound H on post-emergence application of 0.063 or 0.0313 kg/ha of a.s. respectively in the greenhouse.

In another data set the test system is Alopecurus myosuroides. Briefly: greenhouse test, post-emergence herbicidal activity. The data set is classed as in vivo. The following applies: scale 0-100, Table II.
From the text: as §2

The test system of the next data set is Ipoinea spp. Described as above. The following applies: scale 0-100, Table II. In kind it is in vivo.
From the text: as §2

Where [2] appears, read: 0.0156 kg/ha of a.s., scale 0-100, Table I.
Setting [3] is: 0.0313 kg/ha of a.s., scale 0-100, Table I.
The mark [4] stands for this setting: 0.0313 kg/ha of a.s., scale 0-100, Table II.
[5] abbreviates: 0.063 kg/ha of a.s., scale 0-100, Table II.

For `COC(=O)c1ccccc1S(=O)(=O)NC(=O)Nc1nc(OC)nc(C(F)(F)Cl)n1` [Example 1.03], the “Damage [%]” value with Veronica spp. (0.0156 kg/ha of a.s.) stood at 75%; in the data set on Veronica spp. (0.0313 kg/ha of a.s.) it was 85%; in the data set on Solanum nigrum (0.0156 kg/ha of a.s.), 90%; in the data set on Solanum nigrum (0.0313 kg/ha of a.s.), 90%; in the data set with Polygonum persicaria (0.0156 kg/ha of a.s.) it was 80%; with Polygonum persicaria (0.0313 kg/ha of a.s.), 80%. The “Damage [%]” value with Amaranthus retroflexus (0.0156 kg/ha of a.s.) came to 100%; in the data set with Amaranthus retroflexus (0.0313 kg/ha of a.s.) it was 100%; in the data set on Sinapis alba (setting [2]), 90%; in the data set on Sinapis alba (setting [3]), 90%; in the data set on Galium aparine (setting [2]), 75%; in the data set with Galium aparine (setting [3]), 95%. The “selectivity in the exemplary crop plant maize” value in the data set on maize is “outstanding selectivity”. In [1], the “control of broad-leaved undesired plants” value is listed as “very well controlled”.

Regarding `COc1nc(NC(=O)NS(=O)(=O)c2ccccc2C(F)(F)F)nc(C(F)F)n1` [Example 3.01], the “Damage [%]” value in the data set on Sinapis alba (setting [4]) was 98%; with Sinapis alba (setting [5]), 98%; with Galium aparine (setting [4]), 95%; in the data set on Galium aparine (setting [5]), 95%; in the data set on Triticum aestivum (0.0313 kg/ha of a.s.), 0%; with Triticum aestivum (0.063 kg/ha of a.s.), 0%. The “Damage [%]” value in the data set with Alopecurus myosuroides (0.0313 kg/ha of a.s.) stood at 98%; with Alopecurus myosuroides (0.063 kg/ha of a.s.) it was 98%; in the data set with Ipoinea spp. (0.0313 kg/ha of a.s.), 90%; in the data set with Ipoinea spp. (0.063 kg/ha of a.s.), 98%.
